# Target: T1, P-Rex2 DH domain (Homo sapiens, UniProt Q70Z35)
# T1 construct: constitutive Rac-GEF activity of the isolated P-Rex2 DH domain (by 92%); made in house; host or cells: Sf9 cells (baculovirus)
# T1 sequence (Q70Z35 23-214 limits assumed): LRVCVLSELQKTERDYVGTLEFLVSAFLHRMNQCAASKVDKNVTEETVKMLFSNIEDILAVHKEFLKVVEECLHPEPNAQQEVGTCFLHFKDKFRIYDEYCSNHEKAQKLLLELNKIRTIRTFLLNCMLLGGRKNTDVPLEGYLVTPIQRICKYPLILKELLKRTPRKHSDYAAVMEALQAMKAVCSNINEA
# Test: Liposome-based GEF activity assay, isolated P-Rex2 DH domain
# Type: biochemical
# Details: 200 nM DH domain, read-out: inhibition of constitutive Rac-GEF activity of isolated P-Rex2 DH domain
# Procedure: Full-length N-terminally EE-tagged P-Rex1, P-Rex2, the P-Rex1 DH and DHPH domains and the P-Rex2 DH domain were produced in Sf9 cells using baculoviral transduction and were purified using anti-EE beads, as previously described. Briefly, frozen pellets from 500 ml of Sf9 culture infected with P-Rex expressing high-titre baculovirus were resuspended in ice-cold lysis Sf9-cell lysis buffer 2 (1x PBS, 1% Triton X-100, 5 mM EGTA, 1 mM EDTA, 25 mM NaF, 20 mM β-glycerophosphate, 1 mM DTT, 100 µM PMSF, 10 μg/ml each of leupeptin, pepstatin A, aprotinin and antipain) for 5 min and then ultracentrifuged at 118,000 × g for 1 h at 4°C. Supernatants were incubated with pre-washed anti-EE beads for 90 min on ice with end-over-end rotation. […] Protein concentration and purity were determined by coomassie staining of SDS-PAGE gels. […]
# Liposome-based GEF activity assays were carried out essentially as described, except that GEFs were incubated with inhibitor compounds prior to the assay. […] Small GTPases were isolated using anti-EE antibody-coupled Sepharose beads or glutathione Sepharose beads, as appropriate, by incubation on ice for 90 min with end-over-end rotation, four washes in ice-cold wash buffer and resuspension of beads in Ultima Gold scintillation fluid (Perkin Elmer). ^35S-GTPγS incorporation was assessed by scintillation counting (Packard 1600TR, Liquid Scintillation Analyser).
compound,measurement,value
"COc1ccc(-c2[nH]nc3c2C(c2ccc(-c4ccc(Cl)cc4)o2)C(C#N)=C(N)O3)cc1 (stereo not shown) [PREX-in1, 6-amino-4-[5-(4-chlorophenyl)-2-furyl]-3-(4-methoxyphenyl)-2,4-dihydropyrano[2,3-c]pyrazole-5-carbonitrile]",inhibition at 10 µM,92%

# From paper PMC9645260, “Small-molecule inhibitors of P-Rex guanine-nucleotide exchange factors” (Small GTPases, 2022)
